In patent US9499495B2, “Quinazolines and azaquinazolines as dual inhibitors of RAS/RAF/MEK/ERK and PI3K/AKT/PTEN/mTOR pathways” (Asana Biosciences, LLC, priority 2013, dated 2016):

How the values were obtained:
B-RAFV600E = target: T1, B-RAFV600E (Homo sapiens, UniProt P15056, V600E); assay: B-RAFV600E radiometric assay; format: biochemical; details: read-out: Kinase assay B-Raf
T1 construct: purchased Millipore, USA 14-557
Experimental: Compound inhibition for B-RAFV600E was determined through radiometric assay using a BRAF enzyme (Catalog No. 14-557, Millipore, USA) and MEK-K97M protein as a substrate (Catalog No. 0785-0000-1, ProqQinase GmbH, Germany). The B-RAF kinase catalyzes the phosphorylation of MEK protein in the presence of gamma ATP (PLC-101, Jonaki, CCMB, Hyderabad), cold ATP and Mg^2+.
The phosphorylated protein product is detected by the scintillation counter Topcount® machine (Perkin Elmer). This assay has been adapted from the method previously reported by Yeh et al. (2007, Clinical Cancer Research; 13, 1576-1583). The assay measures the B-RAF mediated transfer of 32P from the gamma position of radiolabeled ATP onto MEK1-KD. The labeled phosphorylated protein was measured in MicroBeta® Trilux Counter (Perkin Elmer). The assay was validated with reference compounds RAF1 Kinase Inhibitor I and ZM 336372 inhibitor which are reported to be inhibitors of B-RAF enzyme (Lackey, 2000, Medicinal Chemistry Letters; 10(3):223-226; Kupcho, “Fluorescent High throughput kinase cascade assays for inhibitor characterization, RAF-MEK-ERK pathway, www.invitrogen.com, and Hall-Jackson, 1999, Chemical Biology; 6(8):559-568). B-RAF enzyme mixture (13 μL) was added to compound wells containing 2 μL of the NCE in 1% DMSO and incubated for 45 min at rt on a shaking incubator at 300 rpm. MEK-K97M (0.5 μg) and cold ATP to a final concentration of 5 μM, and hot ATP 0.1 μCi in a volume of 10 μL was added to each well and incubated for 2 h at rt on a shaking incubator at 300 rpm. The reaction was stopped by addition of […] (13 μL) containing ATP (1 mM: 495 μL 1N HCl and 5 μL 100 mM ATP). Aliquot (30 μL) was then transferred to the center of a 2 cm×2 cm P81 paper. P81 paper was washed 8×5 min each with ortho-phosphoric acid (0.5%). P81 papers are washed twice with acetone for […] Assay squares were allowed to dry for […] at 37° C. P81 paper are transferred to Optiplate™ (Perkin Elmer) and counted in a Topcount® counter (Perkin Elmer). Data was plotted against the compound concentration to generate dose-response curves and IC50 values were determined using a sigmoidal dose response curve fit GraphPad Prism® v5 software.

mTOR kinase = target: T2, mTOR kinase (Homo sapiens, UniProt P42345); assay: mTOR kinase TR-FRET assay; format: biochemical
T2 construct: purchased Millipore, US
T2 sequence (P42345 1362-2549 limits assumed): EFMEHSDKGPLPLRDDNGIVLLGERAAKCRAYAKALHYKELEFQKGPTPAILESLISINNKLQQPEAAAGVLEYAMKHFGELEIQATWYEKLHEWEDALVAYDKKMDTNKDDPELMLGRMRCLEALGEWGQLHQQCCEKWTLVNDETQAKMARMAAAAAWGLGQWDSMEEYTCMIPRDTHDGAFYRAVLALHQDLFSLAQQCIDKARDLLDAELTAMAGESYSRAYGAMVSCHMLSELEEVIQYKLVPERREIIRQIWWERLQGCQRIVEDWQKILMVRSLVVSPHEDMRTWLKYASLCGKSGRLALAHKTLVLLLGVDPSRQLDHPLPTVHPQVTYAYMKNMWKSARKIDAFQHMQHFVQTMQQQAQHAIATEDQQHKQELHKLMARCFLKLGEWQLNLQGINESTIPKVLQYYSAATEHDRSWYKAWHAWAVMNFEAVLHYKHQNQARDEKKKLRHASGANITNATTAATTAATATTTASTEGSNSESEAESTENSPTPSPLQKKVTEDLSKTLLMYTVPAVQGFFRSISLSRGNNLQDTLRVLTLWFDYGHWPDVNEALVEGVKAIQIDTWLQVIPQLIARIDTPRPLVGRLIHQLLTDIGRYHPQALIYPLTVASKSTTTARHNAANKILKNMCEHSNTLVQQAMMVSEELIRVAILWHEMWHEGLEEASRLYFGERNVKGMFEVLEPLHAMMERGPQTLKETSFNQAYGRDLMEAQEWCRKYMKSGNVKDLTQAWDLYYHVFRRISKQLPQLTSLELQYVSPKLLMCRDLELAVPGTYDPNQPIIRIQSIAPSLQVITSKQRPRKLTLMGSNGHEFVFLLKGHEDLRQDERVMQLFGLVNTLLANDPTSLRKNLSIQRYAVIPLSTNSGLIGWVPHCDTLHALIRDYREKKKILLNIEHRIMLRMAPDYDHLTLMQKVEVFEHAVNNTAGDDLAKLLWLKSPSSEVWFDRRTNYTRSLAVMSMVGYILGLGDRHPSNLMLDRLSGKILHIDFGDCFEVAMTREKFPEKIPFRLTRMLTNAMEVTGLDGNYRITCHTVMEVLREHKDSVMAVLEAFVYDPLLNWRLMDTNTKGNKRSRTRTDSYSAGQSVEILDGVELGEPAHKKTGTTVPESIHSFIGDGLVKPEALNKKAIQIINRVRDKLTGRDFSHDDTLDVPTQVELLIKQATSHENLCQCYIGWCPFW
Experimental: Compound inhibition for mTOR kinase was determined by homogeneous TR-FRET assay using ULight-p70 S6K (Thr 389) peptide as substrate. mTOR enzyme (Millipore, US; […]) was used in the assay. The reaction buffer was HEPES (50 mM, pH 7.5), EGTA (1 mM), and MnCl2 (3 mM). Test compound was pre-incubated with mTOR for 30 min followed by 50 nM ULight-p70 S6K (Thr 389) peptide along with ATP (20 μM).
After incubating the reaction mixture for 30 min, Eu-labeled anti-phospho-substrate antibody (1 nM, Perkin Elmer, USA) was added. Fluorescence emission at […] was measured upon excitation at 340 nm. The compound dilution was carried out in 100% DMSO followed by a buffer dilution. The kinase reaction was incubated for 1 h at rt followed by the addition of substrate-ATP mix and incubated at rt for 1 h. The reaction was terminated by the addition of EDTA followed by the addition of detection mix. IC50 values were determined using a sigmoidal dose response curve fit, GraphPad Prism® v5 software.

T1 sequence (P15056 416-766 V600E limits assumed): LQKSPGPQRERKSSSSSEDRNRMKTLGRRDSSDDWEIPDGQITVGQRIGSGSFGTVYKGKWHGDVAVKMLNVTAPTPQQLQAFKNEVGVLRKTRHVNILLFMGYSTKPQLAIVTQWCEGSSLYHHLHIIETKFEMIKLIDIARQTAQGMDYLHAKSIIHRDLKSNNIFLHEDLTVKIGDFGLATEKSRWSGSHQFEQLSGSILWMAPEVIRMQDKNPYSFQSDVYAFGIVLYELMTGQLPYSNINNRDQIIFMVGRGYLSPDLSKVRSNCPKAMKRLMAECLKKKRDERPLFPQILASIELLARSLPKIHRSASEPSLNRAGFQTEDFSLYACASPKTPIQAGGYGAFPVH

| Structure (SMILES) | IC50 (B-RAFV600E) [nM] | IC50 (mTOR kinase) [nM] |
| --- | --- | --- |
| CCCS(=O)(=O)Nc1cccc(-c2cc(OCCO)c3nc(-c4ccc(N)nc4)nc(N4CCOCC4)c3c2)c1F [Example 4, N-(3-(2-(6-aminopyridin-3-yl)-8-(2-hydroxyethoxy)-4-morpholinoquinazolin-6-yl)-2-fluorophenyl)propane-1-sulfonamide] | 100 to 1000 | 100 to 1000 |
| CCCS(=O)(=O)Nc1cccc(-c2cc(OC)c3nc(-n4c(CO)nc5ccccc54)nc(N4CCOCC4)c3c2)c1F [Example 10, N-(2-fluoro-3-(2-(2-(hydroxymethyl)-1H-benzo[d]imidazol-1-yl)-8-methoxy-4-morpholinoquinazolin-6-yl)phenyl)propane-1-sulfonamide] | 100 to 1000 | 100 to 1000 |
| CCCCS(=O)(=O)Nc1cccc(-c2cc(OC)c3nc(-c4cnc(N)nc4)nc(N4CCOCC4)c3c2)c1F [Example 23, N-(3-(2-(2-aminopyrimidin-5-yl)-8-methoxy-4-morpholinoquinazolin-6-yl)-2-fluorophenyl)butane-1-sulfonamide] | 100 to 1000 | 100 to 1000 |
| COc1cc(-c2cccc(NS(=O)(=O)c3ccc(F)cc3F)c2F)cc2c(N3CCOCC3)nc(-c3cnc(N)nc3)nc12 [Example 24, N-(3-(2-(2-aminopyrimidin-5-yl)-8-methoxy-4-morpholinoquinazolin-6-yl)-2-fluorophenyl)-2,4-difluorobenzenesulfonamide] | 100 to 1000 | 100 to 1000 |
| COc1cc(-c2cccc(NS(=O)(=O)CCC(F)(F)F)c2F)cc2c(N3CCOCC3)nc(-c3ccc(N)nc3)nc12 [Example 31, N-(3-(2-(6-aminopyridin-3-yl)-8-methoxy-4-morpholinoquinazolin-6-yl)-2-fluorophenyl)-3,3,3-trifluoropropane-1-sulfonamide] | 100 to 1000 | 100 to 1000 |
| CCCS(=O)(=O)Nc1cccc(-c2cc(OC)c3nc(-c4ccc(NC(=O)Nc5ccncc5)cc4)nc(N4CCOCC4)c3c2)c1F [Example 34, N-(2-fluoro-3-(8-methoxy-4-morpholino-2-(4-(3-(pyridin-4-yl)ureido)phenyl)quinazolin-6-yl)phenyl) propane-1-sulfonamide] | 100 to 1000 | 1 to 100 |
| COc1cc(-c2cccc(NS(=O)(=O)CCCF)c2F)cc2c(N3CCOCC3)nc(-c3cnc(N)nc3C)nc12 [Example 35, N-(3-(2-(2-amino-4-methylpyrimidin-5-yl)-8-methoxy-4-morpholinoquinazolin-6-yl)-2-fluorophenyl)-3-fluoropropane-1-sulfonamide] | 1 to 100 | 100 to 1000 |
| COc1cc(-c2cccc(NS(=O)(=O)CCCF)c2F)cc2c(N3CCOC[C@H]3C)nc(-c3cnc4[nH]ccc4c3)nc12 [Example 44, (R)-3-fluoro-N-(2-fluoro-3-(8-methoxy-4-(3-methylmorpholino)-2-(1H-pyrrolo[2,3-b]pyridin-5-yl)quinazolin-6-yl)phenyl)propane-1-sulfonamide] | 100 to 1000 | 100 to 1000 |
| CCCNc1ccc(-c2nc(N3CCOCC3)c3cc(-c4cccc(NS(=O)(=O)CCCF)c4F)cc(OC)c3n2)cn1 [Example 49, 3-fluoro-N-(2-fluoro-3-(8-methoxy-4-morpholino-2-(6-(propylamino)pyridin-3-yl)quinazolin-6-yl)phenyl)propane-1-sulfonamide] | 1 to 100 | 100 to 1000 |
| Nc1ccc(-c2nc(N3CCOCC3)c3cc(-c4cccc(NS(=O)(=O)CCCF)c4F)cc(OCC(=O)O)c3n2)cn1 [Example 59, 2-((2-(6-aminopyridin-3-yl)-6-(2-fluoro-3-(3-fluoropropylsulfonamido)phenyl)-4-morpholino-quinazolin-8-yl)oxy)acetic acid 2,2,2-trifluoroacetate] | 100 to 1000 | 1 to 100 |
| CCOc1cc(-c2cccc(NS(=O)(=O)CCCF)c2F)cc2c(N3CCOC[C@H]3C)nc(-c3cnc4[nH]ccc4c3)nc12 [Example 61, (R)-N-(3-(8-ethoxy-4-(3-methylmorphollno)-2-(1H-pyrrolo[2,3-b]pyridin-5-yl)quinazolin-6-yl)-2-fluorophenyl)-3-fluoropropane-1-sulfonamide] | 1 to 100 | 100 to 1000 |
| CCOc1cc(-c2cccc(NS(=O)(=O)CCCF)c2F)cc2c(N3CCOC[C@@H]3C)nc(-c3cnc(N)nc3)nc12 [Example 66] | 1 to 100 | 100 to 1000 |
| C[C@@H]1COCCN1c1nc(-c2ccc(N)nc2)nc2c(N3CCOCC3)cc(-c3cccc(NS(=O)(=O)CCCF)c3F)cc12 [Example 72, (R)-N-(3-(2-(6-aminopyridin-3-yl)-4-(3-methylmorpholino)-8-morpholinoquinazolin-6-yl)-2-fluorophenyl)-3-fluoropropane-1-sulfonamide] | 1 to 100 | 1 to 100 |
| C[C@@H]1COCCN1c1nc(-c2ccc(N)nc2)nc2c(N3CCCC3)cc(-c3cccc(NS(=O)(=O)CCCF)c3F)cc12 [Example 74, (R)-N-(3-(2-(6-aminopyridin-3-yl)-4-(3-methylmorpholino)-8-(pyrrolidin-1-yl)quinazolin-6-yl)-2-fluorophenyl)-3-fluoropropane-1-sulfonamide] | 1 to 100 | 100 to 1000 |
| COc1cc(-c2c(F)ccc(NS(=O)(=O)CCCF)c2F)cc2c(N3CCOCC3)nc(-c3cnc4[nH]ccc4c3)nc12 [Example 83] | 1 to 100 | 100 to 1000 |
| COc1cc(-c2c(Cl)ccc(NS(=O)(=O)CCCF)c2F)cc2c(N3CCOCC3)nc(-c3ccc(N)nc3)nc12 [Example 85, N-(3-(2-(6-aminopyridin-3-yl)-8-methoxy-4-morpholinoquinazolin-6-yl)-4-chloro-2-fluorophenyl)-3-fluoropropane-1-sulfonamide] | 1 to 100 | 100 to 1000 |
| CCc1cc(-c2cccc(NS(=O)(=O)CCCF)c2F)cc2c(N3CCOC[C@H]3C)nc(-c3cnc(N)nc3)nc12 [Example 119, (R)-N-(3-(2-(2-aminopyrimidin-5-yl)-8-ethyl-4-(3-methylmorpholino)quinazolin-6-yl)-2-fluorophenyl)-3-fluoropropane-1-sulfonamide] | 1 to 100 | 100 to 1000 |
| COc1cc(-c2cccc(NS(=O)(=O)CCCF)c2F)cc2c(N3CCOCC3)nc(-c3ccc(NC(C)=O)nc3)nc12 [Example 124, N-(5-(6-(2-fluoro-3-(3-fluoropropylsulfonamido)phenyl)-8-methoxy-4-morpholinoquinazolin-2-yl)pyridin-2-yl)acetamide] | 1 to 100 | 100 to 1000 |
| COc1cc(-c2cccc(NS(=O)(=O)CCCF)c2F)cc2c(N3CCOCC3)nc(-c3ccc(NS(C)(=O)=O)cc3)nc12 [Example 126, 3-f1uoro-N-(2-fluoro-3-(8-methoxy-2-(4-(methylsulfonamido)phenyl)-4-morpholinoquinazolin-6-yl)phenyl)propane-1-sulfonamide] | 100 to 1000 | 100 to 1000 |
| COCCNc1ccc(-c2nc(N3CCOCC3)c3nc(-c4cccc(NS(=O)(=O)CCCF)c4F)ccc3n2)cn1 [Example 133, 3-fluoro-N-(2-fluoro-3-(2-(6-((2-methoxyethyl)amino)pyridin-3-yl)-4-morpholinopyrido[3,2-d]pyrimidin-6-yl)phenyl)propane-1-sulfonamide] | 1 to 100 | 100 to 1000 |
| CCOc1cc(-c2cccc(NS(=O)(=O)CCCF)c2F)cc2c(N3CCOC[C@H]3C)nc(-c3cnc(NC)nc3)nc12 [Example 138, (R)-N-(3-(8-ethoxy-2-(2-(methylamino)pyrimidin-5-yl)-4-(3-methylmorpholino)quinazolin-6-yl)-2-fluorophenyl)-3-fluoropropane-1-sulfonamide] | 1 to 100 | 100 to 1000 |
